Data set [1] can be described thus: Half-life determined in the urine of monkey. Conditions: simiiformes. In kind it is ADME.
For the next data set, the species on record is Canis familiaris. The experiment in a line: Compound was evaluated for the mean locomotor activity ([…]) by the difference in the counts between postinjection and preinjection activities. It is filed as functional, Canis lupus familiaris.
Data set [2] in a line: Half-life determined in the urine of dog. It is filed as ADME, organism-based, Canis lupus familiaris.

For the compound `Cl.c1ccc(C2(N3CCCCC3)CCCCC2)cc1` [PHENCYCLIDINE HYDROCHLORIDE], the half-life (in general, the time in which the quantity being followed falls by half) in data set [1] was 2.36 h; in data set [2], 2.86 h. The compound further gave an Activity in the data set filed under Canis familiaris of 3062.
In the data set listed under Canis familiaris, `Cl.O=C(O)CCCCNC1(c2ccccc2)CCCCC1.c1ccc(C2(N3CCCCC3)CCCCC2)cc1` had an Activity of 2478.
Same read-out and setting: in the case of `COC(=O)CCCCNC1(c2ccccc2)CCCCC1.Cl.c1ccc(C2(N3CCCCC3)CCCCC2)cc1` it was 2388.
Consider `COC(=O)CCCCNC1(c2ccccc2)CCCCC1.Cl`, for which the Activity in the data set listed under Canis familiaris is -1418.
On the same count and under the same terms, in the case of `Cl.O=C(O)CCCCNC1(c2ccccc2)CCCCC1` it was -1063.
